# Values of other authors as cited in patent US20070149409A1, “Pesticide formulations with substituted biopolymers and organic polymers for improving residual activity, droplet size, adherence and rainfastness on leaves and reduction in soil leaching” (priority 2003, published 2007).
row,Compound,pK / pKa
1,Indole acetic acid,4.7
2,Nc1nc[nH]n1 [Amitrole],9.8
3,CP(=O)(O)CCC(N)C(=O)O (centres unmarked) [glufosinate],9.8
4,CCCOC(=O)NCCCN(C)C [propamocarb],4.9
5,CCCC(Cn1cncn1)c1ccc(Cl)cc1Cl (centres unmarked) [penconazole],1.5
